Measured values: ChEMBL document CHEMBL1144455, “A small molecule-kinase interaction map for clinical kinase inhibitors” (Nat Biotechnol, 2005)

Legend:
[1] = target: T1, Serine/threonine-protein kinase 3 (Mus musculus, UniProt Q9JI10)
T1 sequence (Q9JI10 whole entry): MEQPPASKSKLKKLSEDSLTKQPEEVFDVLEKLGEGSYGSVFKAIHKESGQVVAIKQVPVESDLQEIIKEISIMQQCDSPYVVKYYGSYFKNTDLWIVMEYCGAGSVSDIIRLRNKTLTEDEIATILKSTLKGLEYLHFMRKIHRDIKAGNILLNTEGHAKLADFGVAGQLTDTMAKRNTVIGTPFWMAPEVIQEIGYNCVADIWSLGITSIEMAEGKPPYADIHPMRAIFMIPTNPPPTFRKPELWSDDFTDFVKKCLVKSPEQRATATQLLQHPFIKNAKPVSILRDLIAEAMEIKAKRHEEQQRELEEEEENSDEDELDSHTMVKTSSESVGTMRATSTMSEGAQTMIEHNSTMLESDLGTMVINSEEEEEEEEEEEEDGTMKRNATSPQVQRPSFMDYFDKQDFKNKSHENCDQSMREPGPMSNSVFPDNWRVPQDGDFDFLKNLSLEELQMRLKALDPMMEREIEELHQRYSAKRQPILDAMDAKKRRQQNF

[2] = target: T2, Phosphorylase b kinase gamma catalytic chain, liver/testis isoform (Homo sapiens, UniProt P15735)
T2 sequence (P15735 whole entry): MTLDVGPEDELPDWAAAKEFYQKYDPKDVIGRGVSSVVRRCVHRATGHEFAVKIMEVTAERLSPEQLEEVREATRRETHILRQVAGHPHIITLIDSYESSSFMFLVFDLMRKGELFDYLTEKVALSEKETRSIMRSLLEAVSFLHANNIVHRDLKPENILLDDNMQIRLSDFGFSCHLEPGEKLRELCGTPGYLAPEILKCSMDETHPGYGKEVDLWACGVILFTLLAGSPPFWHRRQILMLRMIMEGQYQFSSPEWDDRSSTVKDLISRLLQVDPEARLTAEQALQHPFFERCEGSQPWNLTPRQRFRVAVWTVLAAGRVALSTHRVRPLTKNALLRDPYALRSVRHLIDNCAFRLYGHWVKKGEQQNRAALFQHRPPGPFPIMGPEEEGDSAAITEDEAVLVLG

[3] = target: Phosphorylase b kinase gamma catalytic chain, skeletal muscle/heart isoform (Homo sapiens, UniProt Q16816)
[4] = target: Receptor tyrosine-protein kinase erbB-2 (Homo sapiens, UniProt P04626)
Ephrin type-A receptor 5 = Ephrin type-A receptor 5 (Homo sapiens, UniProt P54756)
[5] = target: Tyrosine-protein kinase Lyn (Homo sapiens, UniProt P07948)
[6] = target: Tyrosine-protein kinase CSK (Homo sapiens, UniProt P41240)
[7] = target: Dual specificity protein kinase CLK1 (Homo sapiens, UniProt P49759)
[8] = target: Tyrosine-protein kinase FRK (Homo sapiens, UniProt P42685)
[9] = target: Protein-tyrosine kinase 6 (Homo sapiens, UniProt Q13882)
Aurora kinase A = target: T3, Aurora kinase A (Homo sapiens, UniProt O14965)
T3 sequence (O14965 whole entry): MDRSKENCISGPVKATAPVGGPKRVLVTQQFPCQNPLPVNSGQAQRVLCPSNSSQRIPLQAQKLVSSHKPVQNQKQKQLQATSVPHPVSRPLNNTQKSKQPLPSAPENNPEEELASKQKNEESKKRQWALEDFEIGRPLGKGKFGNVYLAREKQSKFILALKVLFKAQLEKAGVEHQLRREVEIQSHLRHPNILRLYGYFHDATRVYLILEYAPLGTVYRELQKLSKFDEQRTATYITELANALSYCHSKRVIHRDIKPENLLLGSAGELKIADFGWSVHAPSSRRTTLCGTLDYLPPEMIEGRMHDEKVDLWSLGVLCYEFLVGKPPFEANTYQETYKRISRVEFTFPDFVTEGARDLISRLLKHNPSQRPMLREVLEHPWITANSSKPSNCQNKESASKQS

Ephrin type-A receptor 3 = target: T4, Ephrin type-A receptor 3 (Homo sapiens, UniProt P29320)
T4 sequence (P29320 whole entry): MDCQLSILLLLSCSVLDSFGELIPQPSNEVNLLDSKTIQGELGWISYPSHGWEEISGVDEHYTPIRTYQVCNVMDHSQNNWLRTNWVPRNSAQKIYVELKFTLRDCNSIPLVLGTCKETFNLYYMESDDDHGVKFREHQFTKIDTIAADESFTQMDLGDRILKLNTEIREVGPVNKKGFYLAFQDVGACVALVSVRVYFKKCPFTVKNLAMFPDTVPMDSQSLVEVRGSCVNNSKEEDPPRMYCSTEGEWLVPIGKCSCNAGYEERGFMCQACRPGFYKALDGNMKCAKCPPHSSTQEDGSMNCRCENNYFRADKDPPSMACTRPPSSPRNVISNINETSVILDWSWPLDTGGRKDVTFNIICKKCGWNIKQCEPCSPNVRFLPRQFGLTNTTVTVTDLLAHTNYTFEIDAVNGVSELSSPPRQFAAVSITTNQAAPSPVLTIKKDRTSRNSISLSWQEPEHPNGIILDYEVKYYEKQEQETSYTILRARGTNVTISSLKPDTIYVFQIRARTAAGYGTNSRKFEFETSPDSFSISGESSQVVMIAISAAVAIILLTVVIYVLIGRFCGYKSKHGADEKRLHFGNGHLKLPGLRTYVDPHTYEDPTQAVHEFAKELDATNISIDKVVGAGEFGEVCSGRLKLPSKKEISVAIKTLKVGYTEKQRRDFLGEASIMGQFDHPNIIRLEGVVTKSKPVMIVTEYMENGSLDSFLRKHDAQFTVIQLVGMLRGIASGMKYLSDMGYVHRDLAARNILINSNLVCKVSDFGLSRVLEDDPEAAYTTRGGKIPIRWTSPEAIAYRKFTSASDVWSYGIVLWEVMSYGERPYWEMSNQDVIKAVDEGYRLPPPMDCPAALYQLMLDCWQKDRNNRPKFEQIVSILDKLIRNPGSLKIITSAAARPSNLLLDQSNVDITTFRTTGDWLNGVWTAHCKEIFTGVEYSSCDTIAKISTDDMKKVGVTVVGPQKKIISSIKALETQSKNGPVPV

[10] = target: Calcium/calmodulin-dependent protein kinase type 1 (Homo sapiens, UniProt Q14012)
Calcium/calmodulin-dependent protein kinase type 1, sequence (Q14012 whole entry): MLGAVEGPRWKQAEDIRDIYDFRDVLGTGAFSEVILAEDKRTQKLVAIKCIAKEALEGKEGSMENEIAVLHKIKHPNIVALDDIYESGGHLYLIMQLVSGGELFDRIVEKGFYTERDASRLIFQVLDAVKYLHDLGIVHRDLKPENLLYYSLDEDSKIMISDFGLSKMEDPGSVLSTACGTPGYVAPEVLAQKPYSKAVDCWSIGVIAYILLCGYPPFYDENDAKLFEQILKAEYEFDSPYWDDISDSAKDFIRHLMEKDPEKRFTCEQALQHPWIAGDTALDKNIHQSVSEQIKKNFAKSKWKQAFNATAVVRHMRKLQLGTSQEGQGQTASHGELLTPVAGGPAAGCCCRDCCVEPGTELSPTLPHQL

Ephrin type-A receptor 5, sequence (P54756 whole entry): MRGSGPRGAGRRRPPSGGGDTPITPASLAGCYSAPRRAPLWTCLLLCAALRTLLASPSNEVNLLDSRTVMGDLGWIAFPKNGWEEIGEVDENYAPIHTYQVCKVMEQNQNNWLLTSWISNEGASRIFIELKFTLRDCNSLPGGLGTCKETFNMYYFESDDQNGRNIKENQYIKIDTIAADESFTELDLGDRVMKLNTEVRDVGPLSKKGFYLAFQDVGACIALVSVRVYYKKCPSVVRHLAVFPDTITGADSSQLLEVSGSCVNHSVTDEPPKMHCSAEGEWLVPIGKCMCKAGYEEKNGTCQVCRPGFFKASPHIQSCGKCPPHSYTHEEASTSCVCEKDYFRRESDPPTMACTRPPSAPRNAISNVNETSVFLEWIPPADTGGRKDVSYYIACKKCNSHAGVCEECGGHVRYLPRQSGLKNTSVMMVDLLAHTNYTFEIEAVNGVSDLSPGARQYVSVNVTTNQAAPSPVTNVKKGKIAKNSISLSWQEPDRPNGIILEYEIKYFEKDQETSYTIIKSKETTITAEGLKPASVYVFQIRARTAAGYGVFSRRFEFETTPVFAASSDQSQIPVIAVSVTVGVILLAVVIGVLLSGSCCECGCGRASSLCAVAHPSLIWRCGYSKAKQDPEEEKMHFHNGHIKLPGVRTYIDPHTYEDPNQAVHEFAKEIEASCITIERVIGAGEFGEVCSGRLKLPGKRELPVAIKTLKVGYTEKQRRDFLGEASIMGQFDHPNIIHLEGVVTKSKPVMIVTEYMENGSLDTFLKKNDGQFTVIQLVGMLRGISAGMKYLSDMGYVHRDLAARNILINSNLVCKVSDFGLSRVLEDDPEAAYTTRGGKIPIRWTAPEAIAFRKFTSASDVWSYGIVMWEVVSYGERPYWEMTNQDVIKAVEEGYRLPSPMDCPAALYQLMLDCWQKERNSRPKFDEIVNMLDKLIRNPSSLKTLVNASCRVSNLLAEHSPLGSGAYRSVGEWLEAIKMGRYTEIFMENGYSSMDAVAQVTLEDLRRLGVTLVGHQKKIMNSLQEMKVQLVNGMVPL
Tyrosine-protein kinase CSK, sequence (P41240 whole entry): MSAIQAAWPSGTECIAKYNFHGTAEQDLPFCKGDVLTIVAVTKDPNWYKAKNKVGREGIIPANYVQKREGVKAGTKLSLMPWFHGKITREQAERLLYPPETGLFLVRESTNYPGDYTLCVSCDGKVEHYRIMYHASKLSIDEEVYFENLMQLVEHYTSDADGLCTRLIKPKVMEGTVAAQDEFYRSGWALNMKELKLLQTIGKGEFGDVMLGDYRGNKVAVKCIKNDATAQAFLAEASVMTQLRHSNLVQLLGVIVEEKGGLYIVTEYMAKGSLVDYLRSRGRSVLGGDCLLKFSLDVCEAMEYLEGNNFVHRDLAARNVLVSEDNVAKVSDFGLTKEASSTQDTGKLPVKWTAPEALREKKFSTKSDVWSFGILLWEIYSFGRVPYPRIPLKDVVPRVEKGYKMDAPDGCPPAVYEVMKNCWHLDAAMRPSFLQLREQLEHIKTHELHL
Tyrosine-protein kinase Lyn, sequence (P07948 whole entry): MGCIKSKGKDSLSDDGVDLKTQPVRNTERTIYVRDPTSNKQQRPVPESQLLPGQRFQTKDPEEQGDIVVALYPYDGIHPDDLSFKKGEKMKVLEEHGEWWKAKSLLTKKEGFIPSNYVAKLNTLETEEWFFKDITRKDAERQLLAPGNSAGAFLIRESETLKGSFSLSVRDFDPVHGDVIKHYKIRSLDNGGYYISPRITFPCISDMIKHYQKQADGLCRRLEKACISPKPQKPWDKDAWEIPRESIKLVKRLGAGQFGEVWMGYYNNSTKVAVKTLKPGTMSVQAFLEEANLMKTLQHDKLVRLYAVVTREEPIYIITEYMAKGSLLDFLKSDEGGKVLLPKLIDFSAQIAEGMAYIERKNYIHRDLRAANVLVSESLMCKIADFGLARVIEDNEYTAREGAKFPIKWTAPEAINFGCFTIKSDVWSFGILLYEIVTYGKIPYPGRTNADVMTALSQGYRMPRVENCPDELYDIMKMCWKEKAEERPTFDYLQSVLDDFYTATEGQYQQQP
Tyrosine-protein kinase FRK, sequence (P42685 whole entry): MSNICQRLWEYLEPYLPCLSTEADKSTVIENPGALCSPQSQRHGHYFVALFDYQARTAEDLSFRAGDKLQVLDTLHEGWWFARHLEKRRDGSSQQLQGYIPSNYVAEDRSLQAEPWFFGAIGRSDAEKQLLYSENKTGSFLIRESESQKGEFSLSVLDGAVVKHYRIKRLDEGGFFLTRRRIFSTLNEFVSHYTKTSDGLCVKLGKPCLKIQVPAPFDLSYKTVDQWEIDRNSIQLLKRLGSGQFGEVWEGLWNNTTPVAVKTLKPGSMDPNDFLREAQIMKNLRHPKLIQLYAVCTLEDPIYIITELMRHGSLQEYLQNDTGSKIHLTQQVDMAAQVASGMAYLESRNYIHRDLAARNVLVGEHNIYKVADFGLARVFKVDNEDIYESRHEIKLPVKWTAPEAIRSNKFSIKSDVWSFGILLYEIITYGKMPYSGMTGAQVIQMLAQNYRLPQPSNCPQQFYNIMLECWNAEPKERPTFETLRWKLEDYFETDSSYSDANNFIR
Protein-tyrosine kinase 6, sequence (Q13882 whole entry): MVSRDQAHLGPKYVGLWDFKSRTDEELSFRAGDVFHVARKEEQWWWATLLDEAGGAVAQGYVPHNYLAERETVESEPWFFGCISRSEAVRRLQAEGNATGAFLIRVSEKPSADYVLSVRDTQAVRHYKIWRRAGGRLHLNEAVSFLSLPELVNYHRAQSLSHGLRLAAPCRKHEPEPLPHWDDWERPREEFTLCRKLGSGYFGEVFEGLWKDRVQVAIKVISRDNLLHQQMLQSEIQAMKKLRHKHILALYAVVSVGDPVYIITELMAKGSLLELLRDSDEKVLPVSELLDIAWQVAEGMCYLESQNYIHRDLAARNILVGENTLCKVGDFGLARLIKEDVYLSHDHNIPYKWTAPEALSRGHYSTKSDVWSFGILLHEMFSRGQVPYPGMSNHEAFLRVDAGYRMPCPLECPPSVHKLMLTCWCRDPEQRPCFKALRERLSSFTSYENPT
Dual specificity protein kinase CLK1, sequence (P49759 whole entry): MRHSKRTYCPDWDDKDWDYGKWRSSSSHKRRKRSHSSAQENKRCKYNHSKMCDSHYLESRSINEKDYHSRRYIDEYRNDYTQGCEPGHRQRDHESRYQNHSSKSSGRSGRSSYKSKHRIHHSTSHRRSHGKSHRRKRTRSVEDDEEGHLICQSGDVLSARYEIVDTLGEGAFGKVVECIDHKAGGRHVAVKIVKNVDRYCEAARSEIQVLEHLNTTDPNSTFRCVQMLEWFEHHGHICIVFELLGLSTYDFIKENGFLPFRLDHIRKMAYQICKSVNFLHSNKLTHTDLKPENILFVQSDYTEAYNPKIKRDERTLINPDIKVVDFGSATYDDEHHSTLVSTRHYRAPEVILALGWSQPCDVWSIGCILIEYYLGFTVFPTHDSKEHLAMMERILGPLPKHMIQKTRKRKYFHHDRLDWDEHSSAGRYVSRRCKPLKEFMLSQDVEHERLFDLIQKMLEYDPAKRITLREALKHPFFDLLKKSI
Phosphorylase b kinase gamma catalytic chain, skeletal muscle/heart isoform, sequence (Q16816 whole entry, canonical isoform): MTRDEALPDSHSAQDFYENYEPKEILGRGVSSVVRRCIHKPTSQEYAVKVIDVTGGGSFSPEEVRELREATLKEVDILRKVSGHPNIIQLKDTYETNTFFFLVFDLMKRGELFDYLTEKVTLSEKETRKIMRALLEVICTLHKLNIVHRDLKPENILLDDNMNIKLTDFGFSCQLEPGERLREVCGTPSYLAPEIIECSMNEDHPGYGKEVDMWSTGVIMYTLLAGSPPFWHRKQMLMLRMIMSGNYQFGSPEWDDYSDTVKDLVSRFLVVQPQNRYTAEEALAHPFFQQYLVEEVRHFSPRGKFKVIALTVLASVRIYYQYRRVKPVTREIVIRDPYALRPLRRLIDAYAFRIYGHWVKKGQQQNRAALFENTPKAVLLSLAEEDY

| SMILES | Kd [1] | Kd [2] | Kd [3] | Kd [4] | Kd (Ephrin type-A receptor 5) | Kd [5] | Kd [6] | Kd [7] | Kd [8] | Kd [9] | Kd (Aurora kinase A) | Kd (Ephrin type-A receptor 3) | Kd [10] |
| --- | --- | --- | --- | --- | --- | --- | --- | --- | --- | --- | --- | --- | --- |
| CCOc1cc2ncc(C#N)c(Nc3ccc(F)c(Cl)c3)c2cc1NC(=O)/C=C/CN(C)C [PELITINIB] | 1.1 µM | 2.5 µM | 1.5 µM | 0.077 µM | 0.71 µM | 0.96 µM | 2.3 µM | 1 µM |  |  |  |  |  |
| Oc1ccc(-c2nc(-c3ccc(F)cc3)c(-c3ccncc3)[nH]2)cc1 [SB-202190] |  |  |  |  |  |  |  |  | 6 µM | 3 µM |  |  |  |
| Oc1c2ccccc2c2c3c(cccc13)N=N2 [SP-600125] | 0.22 µM | 0.48 µM |  |  |  |  |  |  |  |  | 0.98 µM | 4 µM | 4.1 µM |
